This experiment has as its target T1, Dihydrofolate reductase (Homo sapiens, UniProt P00374).
T1 sequence (P00374 whole entry): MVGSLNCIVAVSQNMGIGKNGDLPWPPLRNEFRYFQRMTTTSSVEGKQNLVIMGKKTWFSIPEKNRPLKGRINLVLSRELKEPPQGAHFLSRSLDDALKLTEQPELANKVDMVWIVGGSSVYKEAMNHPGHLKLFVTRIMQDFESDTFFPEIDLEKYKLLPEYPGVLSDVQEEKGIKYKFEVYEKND
Nature of the experiment: ChEBML_54117. An excerpt:
Inhibitory activity towards dihydrofolate reductase derived from human manca leukemia cells

Structures are written as SMILES.

The term IC50 denotes the point on the concentration scale where inhibition reaches its midpoint. A high value points to weaker potency. Consider `CCC(Cc1ccc(C(=O)NC(CCC(=O)O)C(=O)O)cc1)c1cnc2nc(N)nc(N)c2n1` (stereo unspecified), for which the IC50 was 70 nM.
